Assay results from US20160235727A1, “NOVEL PYRROLIDINE DERIVED BETA 3 ADRENERGIC RECEPTOR AGONISTS” (Merck Sharp & Dohme Corp., priority 2013, published 2016).
Where two headings read alike, the source gives them in different places.

Molecular target: T1, human β3-AR (Homo sapiens, UniProt P13945)
T1 construct: expressed in transfected cells; host or cells: CHO (Chinese hamster ovary) cells, stably transfected
Assay: cAMP functional agonist assay (LANCE TR-FRET) in CHO cells expressing cloned human β3-AR
Assay type: cell-based
Settings: for Fold drop in potency vs. 2-chloropyridine analog: EC50 of comparative example divided by EC50 of corresponding 2-chloropyridine compound; for Human β3-AR Agonist Activity (%): percent maximum activation relative to isoproterenol

[1] = CHO cells stably expressing cloned human β3-adrenoceptor, cAMP release, read-out: Human β3-AR Agonism EC50

T1 sequence (P13945 whole entry): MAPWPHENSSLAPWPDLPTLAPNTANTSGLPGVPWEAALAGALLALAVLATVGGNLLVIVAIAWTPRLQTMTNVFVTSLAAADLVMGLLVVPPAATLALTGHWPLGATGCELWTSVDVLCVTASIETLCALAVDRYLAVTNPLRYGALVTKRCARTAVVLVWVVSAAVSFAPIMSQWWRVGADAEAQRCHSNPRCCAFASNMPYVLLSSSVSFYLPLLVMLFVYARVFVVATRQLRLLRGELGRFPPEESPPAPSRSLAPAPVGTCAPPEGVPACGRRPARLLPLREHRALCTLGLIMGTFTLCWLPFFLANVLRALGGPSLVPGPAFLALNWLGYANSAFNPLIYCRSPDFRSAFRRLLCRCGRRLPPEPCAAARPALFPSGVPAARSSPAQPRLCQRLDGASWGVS

Compound	EC50 [1] [nM]	Fold drop in potency vs. 2-chloropyridine analog [fold]	Human β3-AR Agonist Activity (%)	EC50 [nM]
CN(Cc1cccc(=O)[nH]1)C(=O)c1ccc(C[C@@H]2CC[C@H]([C@H](O)c3ccc(OC(F)F)cc3)N2)cc1 [Example 20-E, 4-(((2S,5R)-5-((R)-(4-(difluoromethoxy)phenyl)(hydroxy)methyl)pyrrolidin-2-yl)methyl)-N-methyl-N-((6-oxo-1,6-dihydropyridin-2-yl)methyl)benzamide]	86	18.9	72	–
CN(Cc1cccc(=O)[nH]1)C(=O)c1ccc(C[C@@H]2CC[C@H]([C@H](O)c3ccc(Cl)cc3)N2)cc1 [Example 20-G]	6	4.5	99	–
CN(Cc1cccnc1)C(=O)c1ccc(C[C@@H]2CC[C@H]([C@H](O)c3ccc(Cl)nc3)N2)cc1 [Example 21-A, 4-(((2S,5R)-5-((R)-(6-chloropyridin-3-yl)(hydroxy)methyl)pyrrolidin-2-yl)methyl)-N-methyl-N-(pyridin-3-ylmethyl)benzamide]	4	–	102	–
CN(Cc1cccnc1)C(=O)c1ccc(C[C@@H]2CC[C@H]([C@H](O)c3ccccc3)N2)cc1 [Example 21-B, 4-(((2S,5R)-5-((R)-hydroxy(phenyl)methyl)pyrrolidin-2-yl)methyl)-N-methyl-N-(pyridin-3-ylmethyl)benzamide]	41	9.7	86	–
CN(Cc1cccnc1)C(=O)c1ccc(C[C@@H]2CC[C@H]([C@H](O)c3cccc(F)c3)N2)cc1 [Example 21-C, 4-(((2S,5R)-5-((R)-(3-fluorophenyl)(hydroxy)methyl)pyrrolidin-2-yl)methyl)-N-methyl-N-(pyridin-3-ylmethyl)benzamide]	10	2.3	100	–
CN(Cc1cccnc1)C(=O)c1ccc(C[C@@H]2CC[C@H]([C@H](O)c3cccc(Cl)c3)N2)cc1 [Example 21-D, 4-(((2S,5R)-5-((R)-(3-chlorophenyl)(hydroxy)methyl)pyrrolidin-2-yl)methyl)-N-methyl-N-(pyridin-3-ylmethyl)benzamide]	120	28.2	97	–
CN(Cc1cccnc1)C(=O)c1ccc(C[C@@H]2CC[C@H]([C@H](O)c3ccc(F)cc3)N2)cc1 [Example 21-F, 4-(((2S,5R)-5-((R)-(4-fluorophenyl)(hydroxy)methyl)pyrrolidin-2-yl)methyl)-N-methyl-N-(pyridin-3-ylmethyl)benzamide]	12	2.9	94	–
CN(Cc1cccnc1)C(=O)c1ccc(C[C@@H]2CC[C@H]([C@H](O)c3ccc(Cl)cc3)N2)cc1 [Example 21-G, 4-(((2S,5R)-5-((R)-(4-chlorophenyl)(hydroxy)methyl)pyrrolidin-2-yl)methyl)-N-methyl-N-(pyridin-3-ylmethyl)benzamide]	6	1.3	88	–
CN(Cc1cccnc1)C(=O)c1ccc(C[C@@H]2CC[C@H]([C@H](O)c3cccnc3)N2)cc1 [Example 21-H, 4-(((2S,5R)-5-((R)-hydroxy(pyridin-3-yl)methyl)pyrrolidin-2-yl)methyl)-N-methyl-N-(pyridin-3-ylmethyl)benzamide]	38	8.8	85	–
CN(Cc1cccnc1)C(=O)c1ccc(C[C@@H]2CC[C@H]([C@H](O)c3ccc(C4CC4)nc3)N2)cc1 [Example 21-I, 4-(((2S,5R)-5-((R)-(6-cyclopropylpyridin-3-yl)(hydroxy)methyl)pyrrolidin-2-yl)methyl)-N-methyl-N-(pyridin-3-ylmethyl)benzamide]	19	4.4	71	–
CC(=O)c1ccc([C@@H](O)[C@H]2CC[C@@H](Cc3ccc(C(=O)N(C)Cc4cccnc4)cc3)N2)cn1 [Example 21-J, 4-(((2S,5R)-5-((R)-(6-acetylpyridin-3-yl)(hydroxy)methyl)pyrrolidin-2-yl)methyl)-N-methyl-N-(pyridin-3-ylmethyl)benzamide]	≥ 10000	>2300	38	–
CN(Cc1cccnc1)C(=O)c1ccc(C[C@@H]2CC[C@H]([C@H](O)c3ccc(C(N)=O)nc3)N2)cc1 [Example 21-K, 5-((R)-hydroxy((2R,5S)-5-(4-(methyl(pyridin-3-ylmethyl)carbamoyl)benzyl)pyrrolidin-2-yl)methyl)picolinamide]	112	26.3	87	–
Cc1nc(-c2ccc([C@@H](O)[C@H]3CC[C@@H](Cc4ccc(C(=O)N(C)Cc5cccnc5)cc4)N3)cn2)no1 [Example 21-L, 4-(((2S,5R)-5-((R)-hydroxy(6-(5-methyl-1,2,4-oxadiazol-3-yl)pyridin-3-yl)methyl)pyrrolidin-2-yl)methyl)-N-methyl-N-(pyridin-3-ylmethyl)benzamide]	≥ 10000	>2300	3	–
CN(Cc1cccnc1)C(=O)c1ccc(C[C@@H]2CC[C@H]([C@H](O)c3ccc(N)nc3)N2)cc1 [Example 21-M, 4-(((2S,5R)-5-((R)-(6-aminopyridin-3-yl)(hydroxy)methyl)pyrrolidin-2-yl)methyl)-N-methyl-N-(pyridin-3-ylmethyl)benzamide]	20	4.7	97	–
CN(Cc1cccnc1)C(=O)c1ccc(C[C@@H]2CC[C@H]([C@H](O)c3ccc(NC4CC4)nc3)N2)cc1 [Example 21-N, 4-(((2S,5R)-5-((R)-(6-(cyclopropylamino)pyridin-3-yl)(hydroxy)methyl)pyrrolidin-2-yl)methyl)-N-methyl-N-(pyridin-3-ylmethyl)benzamide]	≥ 10000	>2300	27	–
CN(Cc1cccnc1)C(=O)c1ccc(C[C@@H]2CC[C@H]([C@H](O)c3ccc(C#N)nc3)N2)cc1 [Example 21-O, 4-(((2S,5R)-5-((R)-(6-cyanopyridin-3-yl)(hydroxy)methyl)pyrrolidin-2-yl)methyl)-N-methyl-N-(pyridin-3-ylmethyl)benzamide]	274	64.3	77	–
COc1ccc([C@@H](O)[C@H]2CC[C@@H](Cc3ccc(C(=O)N(C)Cc4cccnc4)cc3)N2)cn1 [Example 21-P, 4-(((2S,5R)-5-((R)-hydroxy(6-methoxypyridin-3-yl)methyl)pyrrolidin-2-yl)methyl)-N-methyl-N-(pyridin-3-ylmethyl)benzamide]	24	5.7	93	–
CN(Cc1cccnc1)C(=O)c1ccc(C[C@@H]2CC[C@H]([C@H](O)c3cncc(F)c3)N2)cc1 [Example 21-R, 4-(((2S,5R)-5-((R)-(5-fluoropyridin-3-yl)(hydroxy)methyl)pyrrolidin-2-yl)methyl)-N-methyl-N-(pyridin-3-ylmethyl)benzamide]	57	13.3	91	–
Cc1cc([C@@H](O)[C@H]2CC[C@@H](Cc3ccc(C(=O)N(C)Cc4cccnc4)cc3)N2)cnc1Cl [Example 21-S, 4-(((2S,5R)-5-((R)-(6-chloro-5-methylpyridin-3-yl)(hydroxy)methyl)pyrrolidin-2yl)methyl)-N-methyl-N-(pyridin-3-ylmethyl)benzamide]	307	72.1	84	–
CCN(Cc1cccnc1)C(=O)c1ccc(C[C@@H]2CC[C@H]([C@H](O)c3ccc(Cl)nc3)N2)cc1 [Example 22-A, 4-(((2S,5R)-5-((R)-(6-chloropyridin-3-yl)(hydroxy)methyl)pyrrolidin-2-yl)methyl)-N-ethyl-N-(pyridin-3-ylmethyl)benzamide]	5	–	62	–
CCN(Cc1cccnc1)C(=O)c1ccc(C[C@@H]2CC[C@H]([C@H](O)c3ccccc3)N2)cc1 [Example 22-B, N-ethyl-4-(((2S,5R)-5-((R)-hydroxy(phenyl)methyl)pyrrolidin-2-yl)methyl)-N-(pyridin-3-ylmethyl)benzamide]	10	2.0	103	–
CC(c1cccnc1)N(C)C(=O)c1ccc(C[C@@H]2CC[C@H]([C@H](O)c3ccc(Cl)nc3)N2)cc1 (stereo partly drawn) [Example 23-A, 4-(((2S,5R)-5-((R)-(6-chloropyridin-3-yl)(hydroxy)methyl)pyrrolidin-2-yl)methyl)-N-methyl-N-(1-(pyridin-3-yl)ethyl)benzamide]	–	–	96	2
